# Where two headings read alike, the source gives them in different places. Marks after values point to notes of the source that are not given here.
# Experiments:
# [1] = 5 mg/g
# [2] = tested on: PTEN-P2/H2B-GFP mouse prostate cancer cells; experiment: IVM pseudo-orthotopic prostate chamber model, tumor size
# Protocol: Male Nude mice (25-35 g body weight) are anesthetized (7.3 mg ketamine hydrochloride and 2.3 mg xylazine/100 g body weight, i.p.) and placed on a heating pad. Two symmetrical titanium frames are implanted into a dorsal skinfold, so as to sandwich the extended double layer of skin. A 15 mm full thickness circular layer is excised. The underlying muscle (M. cutaneous max.) and subcutaneous tissues are covered with a glass coverslip incorporated in one of the frames. After a recovery period of 2-3 days, prostate tissue and cancer cell spheroids are carefully placed in the chamber. Small circular Band Aids are applied on the backside of the chamber after surgery to prevent scratching. Before surgery, Buprenorphine (0.1 mg/kg) is given IP. After surgery Meloxicam is given in the drinking water for 4 days Meloxicam (5.0 mg/ml), is added at 35 μl per 100 ml of water to be medicated.
# Mice are anesthetized with 7.3 mg ketamine hydrochloride and 2.3 mg xylazine/100 g body weight, i.p. A lateral incision across the scrotum is made and the testes are individually ligated and excised. The wound is cauterized. The incision is then sutured and sealed with Nexaband® acrylic.
# Preparation of tumor spheroids: Liquid overlay plates were generated using 1% molecular biology grade agarose melted in cell culture medium and plated in round bottom 96 well plates at 50 ul/well. Tumor cells grown as pre-confluent monolayers were trypsinized and diluted to a final volume of 1,000,000 cells/ml. Viability was determined by Trypan blue. Cells were placed onto the cooled agarose (70 μl/well) and allowed to compact into spheroids for 24 hours. The spheroids were picked with a pipette and transferred into serum-free media for implantation in the chambers.
# IntraVital Microscopy (IVM) can be used to visualize tumors in animals and analyze various aspects of cancer physiology such as tumor vascularization, cell migration and metastasis. An advantage of IVM includes the real-time analysis of dynamic processes with single-cell resolution. IntraVital microscopy offers the possibility to follow tumor growth in a non-invasive, non-destructive manner. The application of IVM can be limited to animal models that bear visually accessible tumors. Therefore, the dorsal skinfold chamber model described above can be compatible with IVM. Using IVM can permit a number of parameters to be measured in living animals and as a function of time, including tumor growth, angiogenesis, infiltration by immune cells, tumor cell migration, mitosis (cell-division) and apoptosis (programmed cell death), all in the context of the host and in real time.
# Unless otherwise indicated, Compound I was administered by oral gavage in a sesame oil (Carrier A) formulation. Compound I was dissolved in DMSO then in oil at a concentration of 0.25 mg/ml (weight/volume) with a final DMSO concentration of 0.5% (vol/vol), and administered to mice at 1 mg/kg. In some experiments, Compound I dissolved in a mixture of poly-ethylene glycol/DMSO 30% (w/v) was administered via intra-peritoneal injection.
# The efficacy of the formulation of Compound I in Carrier A for oral administration was compared to the previous formulation of Compound I in poly-ethylene glycol (PEG) for intra-peritoneal injection (i.p.). These experiments were performed using Intra Vital Microscopy (IVM) in a pseudo-orthotopic prostate chamber model in which minced prostate tissue is grafted in chambers surgically placed in the dorsal skinfold of mice, and allowed to vascularize. Small tumor cells spheroids were then placed on the prostate tissue, creating a biologically relevant prostatic environment. The tumor cells that express fluorescent H2B-GFP and can be detected in situ and in real-time through the microscopy window of the dorsal chamber.
# Epithelial cell lines derived from the prostate tumor of a PTEN-null mouse were used. Mouse prostate cancer cells PTEN-P2 are heterozygous for PTEN deletion and do express protein PTEN.
# TRAMP-C2 tumor cells = experiment: Orthotopic prostate cancer survival study, TRAMP-C2 cells in C57BL/6 mice; type: in vivo, mouse; details: 1 mg/kg per oral plus castration; p<0.001
# Protocol: Orthotopic injection of PTEN-P2 and TRAMP-C2 for survival studies: Mice were anaesthetized and an incision was made through the skin and peritoneum. A total of 30,000 cells were suspended in Matrigel and slowly injected into the dorsal lobe of the prostate using a 30-gauge needle. Matrigel was used to prevent the leakage of cells out of the site of injection. A Q-tip was held over the injection site for 1 min to prevent bleeding and spill after removal of the needle. The abdominal wall was closed by surgical silk sutures.
# Fox1/Nu or C57BL/6J mice were used as recipients for PTEN-P2 and TRAMP-C2 cells, respectively. Mice were surgically castrated 6 weeks later, when tumors were established, and Compound I treatment was initiated 4-5 days later. The number of days mice lived following treatment initiation was recorded for each animal. A few mice were found dead upon daily inspection, while others were euthanized in agreement with our IACUC regulations, including mice showing weight losses of more than 15% and mice showing signs of pain though posture and lack of grooming were euthanized.
# A second study, shown in FIG. 6, used cells derived from the transgenic adenocarcinoma of the mouse prostate (TRAMP) model. The TRAMP model was generated through prostate-specific expression of the large T antigen of SV40 in the prostate epithelium. […]
structure (smiles),measurement,setting,value
"CC1=CC(=O)c2c(O)cccc2C1=O [Compound I, 5-hydroxy-2-methylnaphthalene-1,4-dione]","Solution Stability in Aqueous Media, % Potency",[1]; 0 week,92.86%
same,"Solution Stability in Aqueous Media, % Potency","[1]; 0 week, pH 1",99.62%
same,"Solution Stability in Aqueous Media, % Potency","[1]; 0 week, pH 2",98.23%
same,"Solution Stability in Aqueous Media, % Potency","[1]; 0 week, pH 3",96.53%
same,"Solution Stability in Aqueous Media, % Potency","[1]; 0 week, pH 4",96.76%
same,"Solution Stability in Aqueous Media, % Potency","[1]; 0 week, pH 5",97.34%
same,"Solution Stability in Aqueous Media, % Potency","[1]; 0 week, pH 6",94.27%
same,"Solution Stability in Aqueous Media, % Potency","[1]; 0 week, pH 7",87.84%
same,"Solution Stability in Aqueous Media, % Potency","[1]; 0 week, pH 8",78.28%
same,"Solution Stability in Aqueous Media, % Potency","[1]; 0 week, pH 9",85.90%
same,"Solution Stability in Aqueous Media, % Potency","[1]; 0 week, pH 10",86.55%
same,"Solution Stability in Aqueous Media, % Potency","[1]; 1 week, pH 7",<10%
same,"Solution Stability in Aqueous Media, % Potency","[1]; 1 week, pH 8",<10%
same,"Solution Stability in Aqueous Media, % Potency","[1]; 2 week, pH 7",<10^‡ %
same,"Solution Stability in Aqueous Media, % Potency","[1]; 2 week, pH 8",<10^‡ %
same,"Solution Stability in Aqueous Media, % Potency","[1]; 2 week, pH 9",<10^‡ %
same,"Solution Stability in Aqueous Media, % Potency","[1]; 2 week, pH 10",<10^‡ %
same,Initial Compound I remaining in the solution,"[1]; buffer, 168 h, pH 7",less than 10%
same,Tumor regression at higher doses,"[2]; 3 and 10 mg/kg/day in oil, oral, castrated mice",no improvement over the dose of 1 mg/kg/day
same,Combination efficacy,[2]; Compound I administered orally in combination with surgical castration,Yes
same,Shrinkage of the tumors,[2]; Compound I in Carrier A orally 1 mg/kg/day with degarelix,approximately 50%
same,Tumor size relative to the starting size,[2]; Compound I in Carrier A orally with abiraterone/prednisone,less than 60%
same,Effect on tumor size,[2]; Compound I in Carrier A orally with bicalutamide,did not result in a reduction of initial tumor size
same,Shrinkage of the tumor size,[2]; Compound I in Carrier A orally with dutasteride,approximately 30%
same,Effect on tumor size,[2]; Compound I in Carrier A orally with enzalutamide,did not result in a reduction in tumor size
same,Tumor size relative to the starting size,[2]; Compound I in Carrier A orally with orteronel,less than 60%
same,Decrease of tumor sizes,"[2]; Compound I in PEG, i.p. 1 mg/kg/day, castrated mice, p<0.001",50%
same,Effectiveness vs drug alone,[2]; combination of bicalutamide with Compound I,no more effective than treatment with the drug alone
same,Effectiveness vs drug alone,[2]; combination of enzalutamide with Compound I,no more effective than treatment with the drug alone
same,Effect on tumor size,[2]; combination of leuprolide and the oral formulation of Compound I,caused the tumors to shrink
same,Tumor flare vs leuprolide alone,[2]; combination of the oral formulation of Compound I and leuprolide,shorter and of lesser amplitude
same,Efficiency vs combination with surgical castration,[2]; combination with 2 mg/kg dutasteride,nearly as efficient as the combination of Compound I with surgical castration
same,Efficiency vs chemical ADT by itself,[2]; combination with abiraterone/prednisone vs abiraterone/prednisone,more efficient
same,Shrinkage vs comparator combination,"[2]; combination with abiraterone/prednisone, comparator printed as combination of Compound I and abiraterone/prednisone",more shrinkage of tumors
same,Shrinkage vs combination of Compound I and castration,[2]; combination with degarelix,more shrinkage of tumors
same,Efficiency vs chemical ADT by itself,[2]; combination with degarelix vs degarelix,more efficient
same,Dose dependence of tumor regression,"[2]; combination with dutasteride at 2, 0.3, 0.1, 0.03 mg/kg",tumor regression proportionally to the dose of dutasteride
same,Efficiency vs chemical ADT by itself,"[2]; combination with dutasteride vs dutasteride, p<0.001",more efficient
same,Shrinkage vs combination of Compound I and castration,[2]; combination with orteronel,more shrinkage of tumor size
same,Efficiency vs chemical ADT by itself,[2]; combination with orteronel vs orteronel,more efficient
same,"Maximum tumor size reached, relative to initial tumor size","[2]; leuprolide plus Compound I orally 1 mg/kg/day, p=0.014 between treatments",120%
same,Tumor regression at lower doses,"[2]; lower doses than 1 mg/kg/day (FIG. 3B), oral in Carrier A, castrated mice",less efficient at causing tumor regression
same,Tolerability of oral administration,"[2]; mice, up to 10 mg/kg/day for 21 days, no changes in whole body weights or animal behavior",well tolerated
same,Dose of optimal effect,"[2]; oil formulation, oral, castrated mice",1 mg/kg/day
same,"Tumor regression, oral formulation versus i.p. formulation","[2]; oral 1 mg/kg/day in Carrier A, castrated mice",as effectively as i.p. injection of 1 mg/kg Compound I in PEG
same,Dose at which Compound I was maximally effective,[2]; see Example 5,1 mg/kg
same,Longer survival of 50% of the combination-treated mice vs castration alone,TRAMP-C2 tumor cells,200 days
